The values below come from EPA's ToxRefDB 2.

Series [1] has as its system dog. The following applies: Chronic toxicity, beagle, Oral, Feed, dose end: 52 week, group: systemic.
A further series has as its system rabbit. The settings on record: Prenatal developmental toxicity study, new zealand white, Oral, Gavage/Intubation, dose end: 18 GD.
Series [2] deals with rat. The following applies: Combined chronic toxicity/carcinogenicity, sprague dawley, Oral, Feed, dose end: 104 week, group: systemic.
Series [3] relates to rat. The settings on record: Subchronic oral toxicity in rodents, sprague dawley, Gavage/Intubation, dose end: 90 day, group: systemic.
The subject of series [4] is mouse. The settings on record: Carcinogenicity; cd1; Oral; Feed; dose end: 18 month; group: systemic; systemic / in life observation / body weight / body weight.
For series [5], the system named is mouse. The following applies: Carcinogenicity; cd1; Oral; Feed; dose end: 78 week; group: systemic; systemic / in life observation / body weight / body weight + systemic / in life observation / body weight / body weight gain.
Series [6] deals with rat. The settings on record: Combined chronic toxicity/carcinogenicity, sprague dawley, Oral, Feed, dose end: 24 month, group: systemic.
Series [7] relates to rat. The following applies: Subchronic oral toxicity in rodents, sprague-dawley, Gavage/Intubation, dose end: 90 day, group: systemic, systemic / in life observation / body weight / body weight gain + systemic / in life observation / clinical signs / exophthalamus + systemic….
In series [8] the test system is mouse. The settings on record: Sub-acute repeat dose toxicity; b6c3f1; Oral; Gavage/Intubation; dose end: 14 day; group: systemic; systemic / in life observation / clinical signs / distended abdomens + systemic / in life observation / clinical signs / fur (altered ….
In series [9] the test system is rat. The settings on record: Combined chronic toxicity/carcinogenicity; fischer; Oral; Gavage/Intubation; dose end: 2 year; group: systemic; systemic / pathology microscopic / kidney / cyst + systemic / pathology microscopic / kidney / hyperplasia + systemic / pathology ….
In series [10] the test system is rat. The following applies: Subchronic oral toxicity in rodents, fischer, Gavage/Intubation, dose end: 13 week, group: systemic.
Series [11] deals with mouse. The settings on record: Carcinogenicity, b6c3f1, Oral, Gavage/Intubation, dose end: 2 year, group: systemic.
In series [12] the test system is mouse. The following applies: Subchronic oral toxicity in rodents, b6c3f1, Gavage/Intubation, dose end: 13 week, group: systemic, systemic / pathology microscopic / kidney / fibrosis + systemic / pathology microscopic / kidney / inflammation + systemic / pathology ….
Series [13] deals with rat. The following applies: Prenatal developmental toxicity study, sprague dawley, Oral, Gavage/Intubation, dose end: 15 GD.
For series [14], the system named is rat. The following applies: Subchronic oral toxicity in rodents, sprague dawley, Gavage/Intubation, dose end: 90 day, group: systemic, systemic / in life observation / body weight / body weight + systemic / in life observation / body weight / body weight gain.
Series [15] concerns rat. The settings on record: Subchronic dermal toxicity, sprague dawley, Topical, dose end: 90 day, group: systemic, systemic / pathology microscopic / liver / hypertrophy.
For series [16], the system named is dog. The settings on record: Subchronic oral toxicity in nonrodent, beagle, Gavage/Intubation, dose end: 1 month, group: systemic.
Series [17] has as its system rat. The following applies: Chronic toxicity; sprague dawley; Oral; Gavage/Intubation; dose end: 26 week; group: systemic; systemic / clinical chemistry / alanine aminotransferase (alt/sgpt) / alanine aminotransferase (alt/sgpt) + systemic / clinical chemistry / ….
For series [18], the system named is dog. The settings on record: Chronic toxicity, beagle, Oral, Gavage/Intubation, dose end: 26 week, group: systemic.
The test system of the next series is primate. The settings on record: Sub-acute repeat dose toxicity; macaque; Oral; Gavage/Intubation; dose end: 35 day; group: systemic; systemic / clinical chemistry / bilirubin / total bilirubin.
Series [19] deals with rat. The following applies: Fertility (Segment I), sprague dawley, Oral, Gavage/Intubation, dose end: 6 GD.
For series [20], the system named is rat. The settings on record: Fertility (Segment I), sprague dawley, Oral, Gavage/Intubation, dose end: 63 day, group: parental.
In series [21] the test system is rat. The settings on record: Sub-acute repeat dose toxicity; sprague dawley; Oral; Gavage/Intubation; dose end: 1 month; group: systemic; systemic / clinical chemistry / protein / protein + systemic / clinical chemistry / alanine aminotransferase (alt/sgpt) / alanine ….
In series [22] the test system is rat. The following applies: Subchronic oral toxicity in rodents, sprague dawley, Gavage/Intubation, dose end: 13 week, group: systemic, systemic / pathology microscopic / adrenal gland / congestion + systemic / pathology microscopic / brain / congestion + systemic / pathology….
Setting [23] is: systemic / in life observation / clinical signs / feces, discoloration.
The mark [24] stands for this setting: systemic / organ weight / adrenal gland / absolute + systemic / organ weight / adrenal gland / relative to body weight + systemic / organ ….
[25] abbreviates: group: developmental, developmental / developmental malformation / bone / supernumerary.
The mark [26] stands for this setting: group: developmental, developmental / developmental malformation / bone / supernumerary + developmental / developmental malformation / bone / short supernumerary….
[27] abbreviates: group: maternal, systemic / in life observation / body weight / body weight gain + systemic / in life observation / food consumption / food consumption.
[28] abbreviates: systemic / in life observation / body weight / body weight + systemic / in life observation / body weight / body weight gain.
Setting [29] is: systemic / in life observation / body weight / body weight + systemic / in life observation / body weight / body weight gain + systemic / ….
[30] abbreviates: systemic / in life observation / body weight / body weight + systemic / organ weight / liver / absolute + systemic / organ weight / liver / ….
The mark [31] stands for this setting: systemic / clinical chemistry / aspartate aminotransferase (ast/sgot) / aspartate aminotransferase (ast/sgot).
Where [32] appears, read: systemic / in life observation / mortality / mortality + systemic / pathology gross / mammary gland / cyst + systemic / pathology gross / ….
[33] abbreviates: systemic / in life observation / clinical signs / motor activity + systemic / in life observation / body weight / body weight + systemic / ….
Setting [34] is: systemic / in life observation / clinical signs / salivation.
The mark [35] stands for this setting: systemic / pathology microscopic / lung / hyperplasia.
Setting [36] is: systemic / pathology microscopic / lung / hyperplasia + systemic / pathology microscopic / liver / adenoma + systemic / pathology ….
Setting [37] is: group: developmental, developmental / developmental malformation / bone / [other] + systemic / in life observation / body weight / fetal weight.
Setting [38] is: group: maternal, systemic / in life observation / body weight / body weight gain + systemic / in life observation / food consumption / food consumption + ….
Where [39] appears, read: systemic / in life observation / body weight / body weight + systemic / organ weight / thymus / relative to body weight.
Where [40] appears, read: systemic / in life observation / body weight / body weight + systemic / organ weight / thymus / relative to body weight + systemic / ….
The mark [41] stands for this setting: systemic / organ weight / adrenal gland / absolute + systemic / organ weight / adrenal gland / relative to body weight.
Setting [42] is: systemic / organ weight / adrenal gland / absolute + systemic / organ weight / adrenal gland / relative to body weight + systemic / clinical….
The mark [43] stands for this setting: group: maternal, reproductive / reproductive performance / estrous cycle / abnormal.
Setting [44] is: group: parental, systemic / in life observation / body weight / body weight gain + systemic / in life observation / clinical signs / salivation + systemic / ….
Setting [45] is: systemic / in life observation / body weight / body weight + systemic / in life observation / body weight / body weight gain + systemic / in….

Take `CC1(C)NC(=O)NC1=O` [5,5-Dimethylhydantoin]: the LEL in the series on dog [1] (setting [23]) came to 120 mg/kg/day; in the series with rabbit (setting [25]), 500 mg/kg/day; with rabbit (setting [27]), 1000 mg/kg/day; in the series with rat [2] (setting [29]), 1000 mg/kg/day; with rat [3] (setting [30]) it was 1020 mg/kg/day; in the series on mouse [4], 321 mg/kg/day. In addition, the results for the LEL in the series on mouse [5], with rat [6] (setting [31]) and with rat [7] were 1000 mg/kg/day, 100 mg/kg/day and 1050 mg/kg/day, respectively. Also, the NEL in the series with dog [1] (setting [23]) is < 120 mg/kg/day; in the series with rabbit (setting [26]), 100 mg/kg/day; with rabbit (setting [27]), 500 mg/kg/day; in the series with rat [2] (setting [28]), 300 mg/kg/day; in the series on rat [3] (systemic / organ weight / kidney / absolute + systemic / organ weight / liver / absolute + systemic / organ weight / liver / relative to …), 303 mg/kg/day; in the series on mouse [4], 101 mg/kg/day. Besides, the NEL in the series with mouse [5] is 300 mg/kg/day; in the series on rat [6] (setting [31]), < 100 mg/kg/day; in the series with rat [7], 100 mg/kg/day. Also, the LOAEL with dog [1] (setting [24]) is 1510 mg/kg/day; with rabbit (setting [25]), 500 mg/kg/day; with rabbit (setting [27]), 1000 mg/kg/day; in the series on rat [2] (setting [29]) it was 1000 mg/kg/day; in the series on rat [3] (setting [30]), 1020 mg/kg/day; in the series on mouse [4] it was > 1010 mg/kg/day. Further, the LOAEL in the series on mouse [5] is 1000 mg/kg/day; in the series on rat [6] (setting [32]), 1000 mg/kg/day; in the series on rat [7], > 1050 mg/kg/day. For the same molecule, the NOAEL with dog [1] (setting [24]) was 342 mg/kg/day; in the series on rabbit (setting [26]), 100 mg/kg/day; with rabbit (setting [27]), 500 mg/kg/day; in the series on rat [2] (setting [28]), 300 mg/kg/day; with rat [3] (setting [30]), 303 mg/kg/day; with mouse [4], ≥ 1010 mg/kg/day. The NOAEL is 300 mg/kg/day in the series on mouse [5], 320 mg/kg/day in the series with rat [6] (setting [32]) and ≥ 1050 mg/kg/day with rat [7].

As for `O=C(O)c1ccccc1` [Benzoic acid], in the series on mouse [8], the LEL was 642 mg/kg/day, the LOAEL is > 642 mg/kg/day, the NEL turned out to be 321 mg/kg/day and the NOAEL is ≥ 642 mg/kg/day.

As for `c1ccc2occc2c1` [2,3-Benzofuran], the LEL with rat [9] is 30 mg/kg/day; in the series with rat [10] (setting [34]), 31.2 mg/kg/day; in the series with mouse [11] (setting [36]), 60 mg/kg/day; with mouse [12] it was 250 mg/kg/day. In addition, the LOAEL was 30 mg/kg/day in the series with rat [9], 125 mg/kg/day with rat [10] (setting [33]), 60 mg/kg/day in the series on mouse [11] (setting [35]) and 250 mg/kg/day in the series on mouse [12]. Also, the NEL with rat [9] is < 30 mg/kg/day; with rat [10] (setting [34]), < 31.2 mg/kg/day; in the series with mouse [11] (setting [36]), < 60 mg/kg/day; in the series with mouse [12] it was 125 mg/kg/day. In addition, the NOAEL in the series on rat [9] is < 30 mg/kg/day; in the series with rat [10] (setting [33]), 62.5 mg/kg/day; with mouse [11] (setting [35]), < 60 mg/kg/day; in the series on mouse [12] it was 125 mg/kg/day.

For the molecule `CC(=O)N(CCN(C(C)=O)C(C)=O)C(C)=O` [Tetraacetylethylenediamine], the LEL in the series with rat [13] (setting [37]) was 1000 mg/kg/day; with rat [13] (setting [27]), 200 mg/kg/day; in the series on rat [14], 25 mg/kg/day; with rat [15], 2000 mg/kg/day. Besides, the LOAEL was 1000 mg/kg/day with rat [13] (setting [37]), 200 mg/kg/day in the series on rat [13] (setting [27]), 25 mg/kg/day in the series on rat [14] and > 2000 mg/kg/day in the series on rat [15]. In addition, the NEL in the series on rat [13] (setting [37]) is 200 mg/kg/day; with rat [13] (setting [38]), 40 mg/kg/day; in the series on rat [14], < 25 mg/kg/day; with rat [15] it was 200 mg/kg/day. For the same molecule, the NOAEL was 200 mg/kg/day in the series on rat [13] (setting [37]), 40 mg/kg/day with rat [13] (setting [38]), < 25 mg/kg/day in the series on rat [14] and ≥ 2000 mg/kg/day in the series with rat [15].

On to `Cc1cc2c(cc1C(F)(F)F)N(C(=O)Nc1ccc(Oc3cccnc3C)nc1)CC2.Cl`, for which the LEL in the series on dog [16] (setting [39]) came out at 2 mg/kg/day; with rat [17], 2 mg/kg/day; with dog [18] (setting [41]) it was 2 mg/kg/day; with primate, 1000 mg/kg/day; in the series on rat [19] (setting [43]) it was 20 mg/kg/day; with rat [19] (setting [44]) it was 2 mg/kg/day. Besides, the figures for the LEL in the series on rat [20] (systemic / in life observation / body weight / body weight gain) and in the series on rat [21] were 20 mg/kg/day and 2 mg/kg/day, respectively. In addition, the NEL was < 2 mg/kg/day in the series on dog [16] (setting [39]); < 2 mg/kg/day in the series on rat [17]; < 2 mg/kg/day in the series with dog [18] (setting [41]); 300 mg/kg/day with primate; 2 mg/kg/day in the series with rat [19] (setting [43]); 0.2 mg/kg/day with rat [19] (setting [44]). In addition, the NEL with rat [20] (setting [45]) was 2 mg/kg/day; in the series on rat [21], < 2 mg/kg/day. In addition, the LOAEL in the series with dog [16] (setting [40]) was > 1000 mg/kg/day; in the series on rat [17], > 100 mg/kg/day; in the series with dog [18] (setting [42]), > 300 mg/kg/day; in the series on primate, > 1000 mg/kg/day; in the series on rat [19] (setting [43]), > 20 mg/kg/day; with rat [19] (setting [44]), > 20 mg/kg/day. For the same molecule, the LOAEL in the series with rat [20] (setting [45]) and with rat [21] was > 200 mg/kg/day in each case. The NOAEL is ≥ 1000 mg/kg/day in the series on dog [16] (setting [40]); ≥ 100 mg/kg/day in the series with rat [17]; ≥ 300 mg/kg/day in the series with dog [18] (setting [42]); ≥ 1000 mg/kg/day in the series with primate; ≥ 20 mg/kg/day in the series on rat [19] (setting [43]); ≥ 20 mg/kg/day with rat [19] (setting [44]). Also, the no observed adverse effect level (NOAEL) with rat [20] (setting [45]) and with rat [21] was ≥ 200 mg/kg/day each time.

With `ClNc1nc(NCl)nc(NCl)n1` [Trichloromelamine], in the series with rat [22], the LEL turned out to be 150 mg/kg/day, the LOAEL stood at 150 mg/kg/day, the NEL came out at 30 mg/kg/day and the NOAEL came out at 30 mg/kg/day.
